Assays:
[1] = refractive index (Na D-line) (dimensionless); xn = mol fraction of the nth substance listed; conditions: 298.15 K, 101 kPa, Liquid, Standard Abbe refractometry
[2] = xn = mol fraction of the nth substance listed; conditions: 298.15 K, 101 kPa, Liquid
[3] = refractive index (Na D-line) (dimensionless); conditions: 298.15 K; 101.33 kPa; Liquid; Standard Abbe refractometry
[4] = 298.15 K; 101 kPa; Liquid

CCCCCC [hexane] + CCCCCCCCCCCCCCCC
x2 = 0
Conditions	mass density [kg/m3]	refractive index	viscosity [mPa·s]
[1]	–	1.3745	–
[2]	654.8	–	0.294

CCCCCC [hexane] + CCCCCCCCCC
x2 = 0
Conditions	mass density [kg/m3]	refractive index	viscosity [mPa·s]
[1]	–	1.3745	–
[2]	654.8	–	0.294

CCCCCCCCCC [decane] + CCCCCC
Conditions	mass density, [2] [kg/m3]	refractive index, [1]	viscosity, [2] [mPa·s]
x1 = 0.021	657.1	1.3755	0.296
x1 = 0.0659	662	1.378	0.307
x1 = 0.1584	671.3	1.382	0.337
x1 = 0.233	678.1	1.3854	0.355
x1 = 0.2761	681.8	1.3871	0.377
x1 = 0.3493	687.8	1.39	0.417
x1 = 0.4506	695.3	1.394	0.471
x1 = 0.541	701.4	1.3973	0.518
x1 = 0.6382	707.4	1.4004	0.567
x1 = 0.7836	715.6	1.4045	0.657
x1 = 0.9095	722	1.408	0.772
x1 = 0.9654	724.7	1.4095	0.823
x1 = 0.9936	726	1.4099	0.855
x1 = 1	726.2	1.41	0.859

CCCCCCCCCCCCCCCC [hexadecane]
Conditions	mass density [kg/m3]	refractive index	viscosity [mPa·s]
[3]	–	1.434	–
[4]	770.6	–	3.039

CCCCCCCCCCCCCCCC [hexadecane] + CCCCCC
Conditions	mass density, [2] [kg/m3]	refractive index, [1]	viscosity, [2] [mPa·s]
x1 = 0.0284	662.1	1.3784	0.322
x1 = 0.0757	673.3	1.386	0.382
x1 = 0.1349	685.7	1.395	0.473
x1 = 0.1842	694.9	1.4006	0.559
x1 = 0.266	708.4	1.4087	0.703
x1 = 0.3427	719.1	1.4147	0.864
x1 = 0.4864	735.5	1.4262	1.205
x1 = 0.503	737.1	1.4266	1.24
x1 = 0.6779	751.8	1.4318	1.735
x1 = 0.7546	757	1.432	2.022
x1 = 0.8927	765.1	1.4322	2.562
x1 = 0.9468	768	1.4332	2.805
x1 = 0.9902	770.1	1.434	3.012
x1 = 1	770.6	1.434	3.039

C1CCCCC1 [cyclohexane]
Conditions	mass density [kg/m3]	refractive index	viscosity [mPa·s]
[3]	–	1.4235	–
[4]	773.7	–	0.898

C1CCCCC1 [cyclohexane] + CCCCCC
[2]
Conditions	mass density [kg/m3]	viscosity [mPa·s]
x1 = 0.0357	658.2	0.295
x1 = 0.1127	665.9	0.301
x1 = 0.2	674.9	0.312
x1 = 0.3288	688.6	0.342
x1 = 0.462	703.5	0.405
x1 = 0.5424	712.9	0.451
x1 = 0.577	717	0.472
x1 = 0.6703	728.4	0.539
x1 = 0.7543	739.2	0.603
x1 = 0.8703	754.9	0.71
x1 = 0.9451	765.5	0.794
x1 = 0.974	769.7	0.842
x1 = 0.9935	772.7	0.894
x1 = 1	773.7	0.898

CCCCCC [hexane]
Conditions	mass density [kg/m3]	refractive index	viscosity [mPa·s]
[3]	–	1.3745	–
[4]	654.8	–	0.294

CCCCCC [hexane] + CC(C)CCCC(C)CCCC(C)CCCCC(C)CCCC(C)CCCC(C)C
x2 = 0
Conditions	mass density [kg/m3]	refractive index	viscosity [mPa·s]
[1]	–	1.3745	–
[2]	654.8	–	0.294

CC(C)CCCC(C)CCCC(C)CCCCC(C)CCCC(C)CCCC(C)C (stereo not drawn) [2,6,10,15,19,23-hexamethyltetracosane]
Conditions	mass density [kg/m3]	refractive index	viscosity [mPa·s]
[3]	–	1.4474	–
[4]	805.4	–	31.12

CC(C)CCCC(C)CCCC(C)CCCCC(C)CCCC(C)CCCC(C)C (stereo not drawn) [2,6,10,15,19,23-hexamethyltetracosane] + CCCCCC
Conditions	mass density, [2] [kg/m3]	refractive index, [1]	viscosity, [2] [mPa·s]
x1 = 0.0144	663.9	1.3798	0.405
x1 = 0.0481	682.1	1.3904	0.593
x1 = 0.0748	694.2	1.3976	0.727
x1 = 0.1218	711.9	1.4068	0.971
x1 = 0.1779	728.5	1.4153	1.413
x1 = 0.2858	751.4	1.4244	2.923
x1 = 0.3695	764	1.431	4.685
x1 = 0.4258	770.7	1.4349	6.068
x1 = 0.5661	783.6	1.4435	10.15
x1 = 0.718	793.5	1.4468	15.59
x1 = 0.807	798	1.4468	19.6
x1 = 0.8939	801.7	1.447	24.32
x1 = 0.9593	804.1	1.447	28.41
x1 = 0.9943	805.2	1.4472	30.74
x1 = 1	805.4	1.4474	31.12

CCCCCC [hexane] + C1CCCCC1
[2], x2 = 0
Conditions	mass density [kg/m3]	viscosity [mPa·s]
–	654.8	0.294

CCCCCCCCCC [decane]
Conditions	mass density [kg/m3]	refractive index	viscosity [mPa·s]
[3]	–	1.41	–
[4]	726.2	–	0.859
